Target: Sigma non-opioid intracellular receptor 1 (Cavia porcellus, UniProt Q60492)
Sequence (Q60492 whole entry): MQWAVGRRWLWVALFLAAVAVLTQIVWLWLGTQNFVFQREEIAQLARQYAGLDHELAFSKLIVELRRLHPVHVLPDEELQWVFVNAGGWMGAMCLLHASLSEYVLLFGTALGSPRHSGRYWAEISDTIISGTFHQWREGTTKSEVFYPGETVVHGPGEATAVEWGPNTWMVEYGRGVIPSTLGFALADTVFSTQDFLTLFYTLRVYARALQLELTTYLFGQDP

Clc1cccc(Cl)c1N=C1NCCN1 [2-(2,6-dichloroanilino)-2-imidazoline]
Ki: > 10000 nM

CN(C)CCC=C1c2ccccc2CCc2ccccc21
Ki: 300 nM

CN(C)CCCN1c2ccccc2Sc2ccc(Cl)cc21 [[3-(2-Chloro-phenothiazin-10-yl)-propyl]-dimethyl-amine(Chlorpromazine)]
Ki: 1470 nM

CN(C)CCCN1c2ccccc2Sc2ccc(C(F)(F)F)cc21 [TRIFLUPROMAZINE]
Ki: 605 nM

CNCCC=C1c2ccccc2CCc2ccccc21 [NORTRIPTYLINE]
Ki: 2000 nM

CN(C)CCCN1c2ccccc2CCc2ccccc21
Ki: 520 nM

— BindingDB's records for doi:10.1111/j.2042-7158.1986.tb04590.x (1986)
